In patent EP2592154A1, “Immobilization products and methods for the identification of histone demethylase interacting molecules and for the purification of histone demethylase proteins” (CELLZOME AG, priority 2011, dated 2013):

Target: T1, endogenous UTY (Homo sapiens, UniProt O14607)
T1 construct: endogenous UTY; endogenous in cells; host or cells: THP-1 nuclear extract mixed 1:1 with HEK293 lysate
Assay: Bead competition binding assay using immobilized example 1, concentration response curve (HEK293/THP-1 lysate mix)
Conditions: competition of binding to immobilized example 1, 0.156-40 µM, HEK293 lysate mixed 1:1 with THP-1 nuclear extract
Description: Then the affinity matrix with the immobilized example 1 was added to capture proteins that were not interacting with the previously added free reference compound. Beads were separated from the lysate and bead bound proteins were eluted in SDS sample buffer and subsequently separated by SDS-Polyacrylamide gel electrophoresis. The gel was stained with colloidal Coomassie and stained areas of each gel lane were cut out and subjected to in-gel proteolytic digestion with trypsin. Peptides originating from the different gel areas were labeled with isobaric tagging reagents (TMT reagents, Thermofisher) as shown in Table 6.
JMJD3 DNA encoding the catalytic domain (residues 1141-1682, lacking residues 1637-1675; GenBank BC009994) was amplified by PCR and sub cloned into pCDNA3.1 (+) (Invitrogen, V79020) using BamHI and EcoRI A Flag tag was included in the 5' primer, downstream of the BamHI cloning site. […]
HEK293 cells were homogenized in a Potter S homogenizer in lysis buffer: 50 mM Tris-HCl, 0.8% NP40, 5% glycerol, 150 mM NaCl, 1.5 mM MgCl2, 25 mM NaF, 1 mM sodium vanadate, 1 mM DTT, pH 7.5. […] The supernatant was transferred again to a fresh 50 ml falcon tube, the protein concentration was determined by a Bradford assay (BioRad) and samples containing 50 mg of protein per aliquot were prepared. […]

T1 sequence (O14607 whole entry): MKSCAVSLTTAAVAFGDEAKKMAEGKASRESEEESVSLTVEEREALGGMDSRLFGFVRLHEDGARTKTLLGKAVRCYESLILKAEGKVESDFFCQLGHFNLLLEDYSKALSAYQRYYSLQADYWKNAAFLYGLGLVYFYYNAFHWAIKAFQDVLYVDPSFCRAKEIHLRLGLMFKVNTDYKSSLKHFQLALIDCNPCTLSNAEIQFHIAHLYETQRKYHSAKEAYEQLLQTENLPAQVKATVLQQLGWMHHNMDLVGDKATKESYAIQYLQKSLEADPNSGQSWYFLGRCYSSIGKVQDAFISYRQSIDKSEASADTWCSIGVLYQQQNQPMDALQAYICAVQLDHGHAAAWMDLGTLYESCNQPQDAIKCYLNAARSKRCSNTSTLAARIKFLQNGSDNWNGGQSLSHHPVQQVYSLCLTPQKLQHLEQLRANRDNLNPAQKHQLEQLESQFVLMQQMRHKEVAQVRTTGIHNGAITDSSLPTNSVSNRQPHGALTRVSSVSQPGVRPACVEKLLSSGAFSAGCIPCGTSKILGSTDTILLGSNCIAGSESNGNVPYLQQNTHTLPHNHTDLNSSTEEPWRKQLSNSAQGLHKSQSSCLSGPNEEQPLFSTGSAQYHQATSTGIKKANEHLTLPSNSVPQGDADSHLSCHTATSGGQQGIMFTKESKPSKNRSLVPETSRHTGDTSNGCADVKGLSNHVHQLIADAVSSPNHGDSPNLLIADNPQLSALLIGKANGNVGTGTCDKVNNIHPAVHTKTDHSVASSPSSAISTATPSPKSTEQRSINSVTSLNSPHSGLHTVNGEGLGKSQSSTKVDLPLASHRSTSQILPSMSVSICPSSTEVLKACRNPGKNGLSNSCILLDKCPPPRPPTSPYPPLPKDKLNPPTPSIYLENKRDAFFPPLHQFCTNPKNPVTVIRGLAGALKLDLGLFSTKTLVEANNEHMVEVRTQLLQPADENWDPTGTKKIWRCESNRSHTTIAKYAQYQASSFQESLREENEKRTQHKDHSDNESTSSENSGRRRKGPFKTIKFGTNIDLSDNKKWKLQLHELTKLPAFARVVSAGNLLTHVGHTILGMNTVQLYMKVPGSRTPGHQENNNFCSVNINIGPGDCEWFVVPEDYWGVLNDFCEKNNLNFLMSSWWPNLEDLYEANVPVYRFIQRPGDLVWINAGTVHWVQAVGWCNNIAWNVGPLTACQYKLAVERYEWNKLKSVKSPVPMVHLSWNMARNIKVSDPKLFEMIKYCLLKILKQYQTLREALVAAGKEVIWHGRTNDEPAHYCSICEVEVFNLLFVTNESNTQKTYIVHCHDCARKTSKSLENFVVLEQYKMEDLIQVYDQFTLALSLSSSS

O=C(O)CCNc1cc(N2CCc3ccccc3CC2)nc(-c2ccccn2)n1 [Reference example 2, N-[2-(2-pyridinyl)-6-(1,2,4,5-tetrahydro-3H-3-benzazepin-3-yl)-4-pyrimidinyl]-β-alanine]
IC50: 1400 nM
